{"source": "patent US20100204265A1", "about": "(priority 2009, published 2010)"}
{"tested_on": "ET (Huh-lucubineo-ET) cell line harboring I389luc-ubi-neo/NS3-3′/ET HCV replicon", "test": "Replicon assay (HCV replicon, luciferase readout)", "type": "cell-based", "conditions": "Hepatitis C virus", "protocol": "A cell line, ET (Huh-lucubineo-ET) is used for screening of compounds for inhibiting HCV RNA dependent RNA polymerase. The ET cell line is stably transfected with RNA transcripts harboring a I389luc-ubi-neo/NS3-3′/ET; replicon with firefly luciferase-ubiquitin-neomycin phosphotransferase fusion protein and EMCV-IRES driven NS3-5B polyprotein containing the cell culture adaptive mutations (E1202G; T1280I; K1846T) (Krieger at al, 2001 and unpublished). The ET cells are grown in DMEM (Dulbeco's Modified Eagle's Medium), supplemented with 10% fetal calf serum, 2 mM Glutamine, Penicillin (100 IU/mL)/Streptomycin (100 μg/mL), 1× nonessential amino acids, and 250 μg/mL G418 (“Geneticin”). They are all available through Life Technologies (Bethesda, Md.). The cells are plated at 0.5−1.0×10^4 cells/well in the 96 well plates and incubated for 24 hrs before adding test compound. The compounds are added to the cells to achieve a final concentration of 0.1 nM to […] and a final DMSO (dimethylsulfoxide) concentration of 0.5%. Luciferase activity is measured 48-72 hours later by adding a lysis buffer and the substrate (Catalog number Glo-lysis buffer E2661 and Bright-Glo luciferase system E2620 Promega, Madison, Wis.). Cells should not be too confluent during the assay. Percent inhibition of replication data is plotted relative to no compound control. Under the same condition, cytotoxicity of the compounds are determined using cell proliferation reagent, WST-1 (Roche, Germany). The compounds showing antiviral activities, but no significant cytotoxicities are chosen to determine EC50 and TC50. For these determinations, a 10 point, 2-fold serial dilution for each compound was used, which spans a concentration range of 1000 fold. EC50 and similarly TC50 values were calculated by fitting % inhibition at each concentration to the following equation:\n% inhibition=100%/[(EC50/[I])^b+1]\nwhere b is Hill's coefficient.", "units": {"EC50": "µM"}}
{"smiles": "CSCCC(NC(C)=O)C(=O)NCc1cn2cc(-c3ccoc3)cc(C(F)(F)F)c2n1", "note": "(centres unmarked) [Compound 287, 2-Acetylamino-N-(6-furan-3-yl-8-trifluoromethyl-imidazo[1,2-a]pyridin-2-ylmethyl)-4-methylsulfanyl-butyramide]", "EC50": "> 50"}
{"smiles": "COC(=O)C(CC(C)C)NC(=O)c1cn2cc(-c3ccoc3)cc(C(F)(F)F)c2n1", "note": "(centres unmarked) [Compound 156, 2-[(6-Furan-3-yl-8-trifluoromethyl-imidazo[1,2-a]pyridine-2-carbonyl)-amino]-4-methyl-pentanoic acid methyl ester]", "EC50": 46.8}
{"smiles": "O=C(NCCc1cn2cc(-c3ccoc3)cc(C(F)(F)F)c2n1)C1CC1", "note": "[Compound 275, Cyclopropanecarboxylic acid [2-(6-furan-3-yl-8-trifluoromethyl-imidazo[1,2-a]pyridin-2-yl)-ethyl]-amide]", "EC50": "> 50"}
{"smiles": "O=C(c1nc2c(C(F)(F)F)cc(-c3ccoc3)cn2c1Cl)N1CC=C(c2ncccc2O)CC1", "note": "[Compound 201, (3-Chloro-6-furan-3-yl-8-trifluoromethyl-imidazo[1,2-a]pyridin-2-yl)-(3-hydroxy-3′,6′-dihydro-2′H-[2,4′]bipyridinyl-1′-yl)-methanone]", "EC50": 15.3}
{"smiles": "COC(=O)C(NC(=O)Cc1cn2cc(-c3ccoc3)cc(C(F)(F)F)c2n1)c1ccccc1", "note": "(centres unmarked) [Compound 309, [2-(6-Furan-3-yl-8-trifluoromethyl-imidazo[1,2-a]pyridin-2-yl)-acetylamino]-phenyl-acetic acid methyl ester]", "EC50": "> 50"}
{"smiles": "O=C(c1nc2c(C(F)(F)F)cc(-c3cn[nH]c3)cn2c1Cl)N1CC=C(c2ccsc2)C1", "note": "[Compound 132, [3-Chloro-6-(1H-pyrazol-4-yl)-8-trifluoromethyl-imidazo[1,2-a]pyridin-2-yl]-(3-thiophen-3-yl-2,5-dihydro-pyrrol-1-yl)-methanone]", "EC50": 0.107}
{"smiles": "COC(=O)C1CCCN1C(=O)Cc1cn2cc(-c3ccoc3)cc(C(F)(F)F)c2n1", "note": "(centres unmarked) [Compound 307, 1-[2-(6-Furan-3-yl-8-trifluoromethyl-imidazo[1,2-a]pyridin-2-yl)-acetyl]-pyrrolidine-2-carboxylic acid methyl ester]", "EC50": "> 50"}
{"smiles": "O=C(c1nc2c(C(F)(F)F)cc(-c3cncs3)cn2c1Cl)N1CC=C(c2ncccc2F)CC1", "note": "[Compound 119, (3-Chloro-6-thiazol-5-yl-8-trifluoromethyl-imidazo[1,2-a]pyridin-2-yl)-(3-fluoro-3′,6′-dihydro-2′H-[2,4′]bipyridinyl-1′-yl)-methanone]", "EC50": 0.354}
{"smiles": "O=C(Cc1cn2cc(-c3ccoc3)cc(C(F)(F)F)c2n1)N1CCCCC1c1ccccc1", "note": "(centres unmarked) [Compound 110, 2-(6-Furan-3-yl-8-trifluoromethyl-imidazo[1,2-a]pyridin-2-yl)-1-(2-phenyl-piperidin-1-yl)-ethanone]", "EC50": 49}
{"smiles": "CC(C)CCC1CCN(C(=O)c2nc3c(C(F)(F)F)cc(-c4ccoc4)cn3c2Cl)CC1", "note": "[Compound 225, (3-Chloro-6-furan-3-yl-8-trifluoromethyl-imidazo[1,2-a]pyridin-2-yl)-[4-(3-methyl-butyl)-piperidin-1-yl]-methanone]", "EC50": 2.29}
{"smiles": "O=C(c1nc2c(C(F)(F)F)cc(-c3ccoc3)cn2c1Cl)N1CC=C(C#Cc2cccnc2)CC1", "note": "[Compound 198, (3-Chloro-6-furan-3-yl-8-trifluoromethyl-imidazo[1,2-a]pyridin-2-yl)-(4-pyridin-3-ylethynyl-3,6-dihydro-2H-pyridin-1-yl)-methanone]", "EC50": 14.6}
{"smiles": "O=C(Cc1cccc(F)c1)NCc1cn2cc(-c3ccoc3)cc(C(F)(F)F)c2n1", "note": "[Compound 128, 2-(3-Fluoro-phenyl)-N-(6-furan-3-yl-8-trifluoromethyl-imidazo[1,2-a]pyridin-2-ylmethyl)-acetamide]", "EC50": 4.83}
{"smiles": "O=C(Cc1cn2cc(-c3ccoc3)cc(C(F)(F)F)c2n1)N1CCN(c2nccs2)CC1", "note": "[Compound 109, 2-(6-Furan-3-yl-8-trifluoromethyl-imidazo[1,2-a]pyridin-2-yl)-1-(4-thiazol-2-yl-piperazin-1-yl)-ethanone]", "EC50": "> 50"}
{"smiles": "O=C(c1nc2c(C(F)(F)F)cc(-c3cn[nH]c3)cn2c1Cl)N1CCC(OCC2CC2)CC1", "note": "[Compound 174, [3-Chloro-6-(1H-pyrazol-4-yl)-8-trifluoromethyl-imidazo[1,2-a]pyridin-2-yl]-(4-cyclopropylmethoxy-piperidin-1-yl)-methanone]", "EC50": 0.31}
{"smiles": "O=C(c1nc2c(C(F)(F)F)cc(-c3ccoc3)cn2c1Cl)N1CCC(OCC2CC2)CC1", "note": "[Compound 175, (3-Chloro-6-furan-3-yl-8-trifluoromethyl-imidazo[1,2-a]pyridin-2-yl)-(4-cyclopropylmethoxy-piperidin-1-yl)-methanone]", "EC50": 0.79}
{"smiles": "O=C(c1nc2c(C(F)(F)F)cc(/C=C/C3CC3)cn2c1Cl)N1CC=C(c2ncccc2F)CC1", "note": "[Compound 127, [3-Chloro-6-(2-cyclopropyl-vinyl)-8-trifluoromethyl-imidazo[1,2-a]pyridin-2-yl]-(3-fluoro-3′,6′-dihydro-2′H-[2,4′]bipyridinyl-1′-yl)-methanone]", "EC50": 0.428}
{"smiles": "O=C(c1nc2c(C(F)(F)F)cc(-c3ccoc3)cn2c1Cl)N1CC=C(c2ncccc2Cl)CC1", "note": "[Compound 202, (3-Chloro-3′,6′-dihydro-2′H-[2,4′]bipyridinyl-1′-yl)-(3-chloro-6-furan-3-yl-8-trifluoromethyl-imidazo[1,2-a]pyridin-2-yl)-methanone]", "EC50": 0.329}
{"smiles": "O=C(Cc1cn2cc(-c3ccoc3)cc(C(F)(F)F)c2n1)N1CC=C(c2nccs2)CC1", "note": "[Compound 191, 2-(6-Furan-3-yl-8-trifluoromethyl-imidazo[1,2-a]pyridin-2-yl)-1-(4-thiazol-2-yl-3,6-dihydro-2H-pyridin-1-yl)-ethanone]", "EC50": "> 50"}
{"smiles": "CC(C)(C)C#CC1=CCN(C(=O)c2nc3c(C(F)(F)F)cc(-c4ccoc4)cn3c2Cl)CC1", "note": "[Compound 199, (3-Chloro-6-furan-3-yl-8-trifluoromethyl-imidazo[1,2-a]pyridin-2-yl)-[4-(3,3-dimethyl-but-1-ynyl)-3,6-dihydro-2H-pyridin-1-yl]-methanone]", "EC50": "> 50"}
{"smiles": "O=C(Cc1ccccc1F)NCc1cn2cc(-c3ccoc3)cc(C(F)(F)F)c2n1", "note": "[Compound 129, 2-(2-Fluoro-phenyl)-N-(6-furan-3-yl-8-trifluoromethyl-imidazo[1,2-a]pyridin-2-ylmethyl)-acetamide]", "EC50": 20.3}
{"smiles": "CC(=O)NC(C)C(=O)NCc1cn2cc(-c3ccoc3)cc(C(F)(F)F)c2n1", "note": "(centres unmarked) [Compound 244, 2-Acetylamino-N-(6-furan-3-yl-8-trifluoromethyl-imidazo[1,2-a]pyridin-2-ylmethyl)-propionamide]", "EC50": "> 50"}
{"smiles": "O=C(c1nc2c(C(F)(F)F)cc(Br)cn2c1Cl)N1CC=C(c2ncccc2F)CC1", "note": "[Compound 125, (6-Bromo-3-chloro-8-trifluoromethyl-imidazo[1,2-a]pyridin-2-yl)-(3-fluoro-3′,6′-dihydro-2′H-[2,4′]bipyridinyl-1′-yl)-methanone]", "EC50": 0.0293}
{"smiles": "CC(NC(=O)Cc1cn2cc(-c3ccoc3)cc(C(F)(F)F)c2n1)C(N)=O", "note": "(centres unmarked) [Compound 296, 2-[2-(6-Furan-3-yl-8-trifluoromethyl-imidazo[1,2-a]pyridin-2-yl)-acetylamino]-propionamide]", "EC50": "> 50"}
{"smiles": "CN(C)CC(=O)NCc1cn2cc(-c3ccoc3)cc(C(F)(F)F)c2n1", "note": "[Compound 239, 2-Dimethylamino-N-(6-furan-3-yl-8-trifluoromethyl-imidazo[1,2-a]pyridin-2-ylmethyl)-acetamide]", "EC50": "> 50"}
{"smiles": "FC(F)(F)c1cc(-c2ccoc2)cn2cc(Cc3nc(-c4ccccc4)no3)nc12", "note": "[Compound 229, 6-Furan-3-yl-2-(3-phenyl-[1,2,4,]oxadiazol-5-ylmethyl)-8-trifluoromethyl-imidazo[1,2-a]pyridine]", "EC50": "> 50"}
{"smiles": "O=C(c1nc2c(C(F)(F)F)cc(-c3cn[nH]c3)cn2c1Cl)N1CC=C(c2cncs2)C1", "note": "[Compound 105, [3-Chloro-6-(1H-pyrazol-4-yl)-8-trifluoromethyl-imidazo [1,2-a]pyridin-2-yl]-(3-thiazol-5-yl-2,5-dihydro-pyrrol-1-yl)-methanone]", "EC50": 0.13}
{"smiles": "O=S(=O)(NCc1cn2cc(-c3ccoc3)cc(C(F)(F)F)c2n1)C1CC1", "note": "[Compound 227, Cyclopropanesulfonic acid (6-furan-3-yl-8-trifluoromethyl-imidazo[1,2-a]pyridin-2-ylmethyl)-amide]", "EC50": "> 50"}
{"smiles": "O=C(c1nc2c(C(F)(F)F)cc(-c3ccoc3)cn2c1Cl)N1CC=C(c2ncccc2C(F)(F)F)CC1", "note": "[Compound 205, (3-Chloro-6-furan-3-yl-8-trifluoromethyl-imidazo[1,2-a]pyridin-2-yl)-(3-trifluoromethyl-3′,6′-dihydro-2′H-[2,4′]bipyridinyl-1′-yl)-methanone]", "EC50": 18}
{"smiles": "CN(C1CN(C(=O)c2nc3c(C(F)(F)F)cc(-c4ccoc4)cn3c2Cl)C1)S(C)(=O)=O", "note": "[Compound 143, N-[1-(3-Chloro-6-furan-3-yl-8-trifluoromethyl-imidazo[1,2-a]pyridine-2-carbonyl)-azetidin-3-yl]-N-methyl-methanesulfonamide]", "EC50": 0.901}
